The target of data set [1] is T1, XIAP-Caspase-9 in HEK293-XIAP-Caspase-9 cells (Homo sapiens, UniProt P98170).
T1 construct: FLAG; expressed in transfected cells
In words: HEK293-XIAP-Caspase-9 immunoprecipitation (IP) MSD assay. It counts as cell-based. Conditions: compound 2 h at 37° C.; read-out: HEK293-X-C9 IP. As to the method: Stable HEK293-XIAP-Caspase-9 cells were plated out into 96-well plates [200 μl/well at 1×10^6 cells/mL in cultured complete medium (DMEM+10% FBS+0.5 mg/mL Geneticin (Invitrogen)] and left overnight at 37° C. to recover. Compounds were added to duplicate wells in 0.1% DMSO for 2 h at 37° C. Cells were lysed in 50 μl 1×MSD lysis buffer (1% Triton X-100 in 20 mM Tris·Cl (pH 7.6), 150 mM NaCl including protease inhibitors) for 20 min rocking at room temperature. Streptavidin high bind MSD plate (L15SB-2) were coated with biotinylated anti-FLAG M2 antibody (Sigma F9291) at 25 μl/well with a 5 μg/mL dilution of antibody in PBS for 1 h, shaking; followed by blocking for 1 h with 150 μl 3% BSA/TBST. Cell lysate (25 μl) was added to the 96-well anti-FLAG coated MSD plate and placed on shaker for 4 h at room temperature. […] Plates were washed 4 times with 150 μl TBST, and 150 μl/well 1×MSD read buffer (R92TC-2) added before reading each plate.
EC50 values were determined from dose-response plots using nonlinear least-squares analysis.

For a further data set, the target named is T2, hERG ion channel (Homo sapiens, UniProt Q12809).
T2 construct: expressed in transfected cells; host or cells: CHO K1
T2 sequence (Q12809 whole entry): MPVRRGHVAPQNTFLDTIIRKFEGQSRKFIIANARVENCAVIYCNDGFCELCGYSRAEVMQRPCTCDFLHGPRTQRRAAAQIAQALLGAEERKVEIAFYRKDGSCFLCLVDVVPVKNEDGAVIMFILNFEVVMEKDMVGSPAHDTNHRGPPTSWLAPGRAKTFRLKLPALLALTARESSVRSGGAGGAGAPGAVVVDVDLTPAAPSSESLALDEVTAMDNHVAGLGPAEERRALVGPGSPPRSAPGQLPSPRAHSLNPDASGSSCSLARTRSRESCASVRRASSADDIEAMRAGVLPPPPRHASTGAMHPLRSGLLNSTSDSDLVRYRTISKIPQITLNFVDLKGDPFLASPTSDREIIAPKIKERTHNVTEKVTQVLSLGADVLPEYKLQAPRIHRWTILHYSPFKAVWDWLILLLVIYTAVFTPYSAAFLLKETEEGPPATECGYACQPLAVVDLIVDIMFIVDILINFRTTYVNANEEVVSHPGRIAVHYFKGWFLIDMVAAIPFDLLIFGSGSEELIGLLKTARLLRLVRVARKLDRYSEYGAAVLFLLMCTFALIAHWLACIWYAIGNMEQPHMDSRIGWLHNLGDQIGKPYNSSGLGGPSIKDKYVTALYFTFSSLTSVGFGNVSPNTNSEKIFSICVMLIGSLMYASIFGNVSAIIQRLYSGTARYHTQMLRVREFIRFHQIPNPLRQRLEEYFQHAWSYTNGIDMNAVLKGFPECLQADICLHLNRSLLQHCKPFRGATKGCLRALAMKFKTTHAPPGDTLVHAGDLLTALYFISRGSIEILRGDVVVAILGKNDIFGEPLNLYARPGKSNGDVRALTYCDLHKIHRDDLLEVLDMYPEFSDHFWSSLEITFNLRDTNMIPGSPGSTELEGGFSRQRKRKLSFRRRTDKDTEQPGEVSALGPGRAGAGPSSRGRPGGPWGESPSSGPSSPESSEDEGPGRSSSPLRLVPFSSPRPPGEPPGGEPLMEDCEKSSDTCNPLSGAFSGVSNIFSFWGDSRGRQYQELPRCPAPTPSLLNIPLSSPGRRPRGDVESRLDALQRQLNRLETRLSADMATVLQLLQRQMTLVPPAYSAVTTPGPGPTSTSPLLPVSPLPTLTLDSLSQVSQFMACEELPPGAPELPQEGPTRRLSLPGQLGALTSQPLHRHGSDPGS
Nature of the data set: Population Patch Clamp (PPC) hERG assay in CHO K1 cells. The format is cell-based. Conditions: for IC50: CHO K1 cells stably transfected with hERG. As to the method: Inhibition of the hERG channel was measured by automated patch clamp assay in CHO K1 cells, stably transfected with the hERG ion channel. PPC measurements were performed using an IonWorks Quattro instrument (Molecular Devices Corporation, Union City, CA) using a 384 well PatchPlate (Molecular Devices Corporation) with 64 apertures per well. Each concentration of test compound was tested in duplicate wells. Amphotericin B was used to obtain electrical access to the cell interior at a final concentration of 200 μg/mL. Human ether-à-gogo related gene (hERG) currents were measured with a prepulse to +40 mV (2 s) from the holding potential of −80 mV, followed by a step to −50 mV (2 s) to elicit the deactivating tail currents, before returning to the holding potential for 1s. Compounds were incubated for 600s between the pre- and post-compound reads. The external recording solution used was 130 mM Na Gluconate, 20 mM NaCl, 4 mM KCl, 1 mM MgCl2, 1.8 mM CaCl2, 10 mM Hepes, 5 mM Glucose, pH to 7.3 with NaOH. All data were filtered for seal quality, seal drop, and current amplitude. The maximum current amplitude of the 3rd pulse tail current was calculated before (Pre) and after (Post) compound addition and the amount of block assessed by dividing the Post-compound current amplitude by the Pre-compound current amplitude.

Several values for one entry are separate records, joined by “and”; a condition that tells them apart may be missing. Equal values may be shown once. Where a name gives a salt, the structure may show the parent alone.

T1 sequence (P98170 whole entry): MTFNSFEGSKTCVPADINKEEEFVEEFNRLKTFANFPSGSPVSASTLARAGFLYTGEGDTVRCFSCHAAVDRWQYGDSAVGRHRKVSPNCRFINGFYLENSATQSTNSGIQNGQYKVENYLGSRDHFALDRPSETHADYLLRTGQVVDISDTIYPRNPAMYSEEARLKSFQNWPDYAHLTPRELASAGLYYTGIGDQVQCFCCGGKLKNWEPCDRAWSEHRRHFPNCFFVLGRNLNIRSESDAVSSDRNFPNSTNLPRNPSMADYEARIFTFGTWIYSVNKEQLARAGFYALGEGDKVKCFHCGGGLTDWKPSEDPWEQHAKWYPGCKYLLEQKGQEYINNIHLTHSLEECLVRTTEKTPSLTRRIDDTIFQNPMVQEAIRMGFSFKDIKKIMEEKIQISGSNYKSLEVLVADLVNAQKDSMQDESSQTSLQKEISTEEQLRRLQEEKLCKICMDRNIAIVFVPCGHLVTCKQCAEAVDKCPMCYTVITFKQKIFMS

As to `C[C@@H]1CN(CC(=O)N2CC(C)(C)c3[nH]c(=O)c(Cc4ccc(F)cc4F)cc32)[C@@H](CN2[C@H](C)COC[C@H]2C)CN1` [Example 7, 6-[(2,4-Difluorophenyl)methyl]-1-{2-[(2R,5R)-2-{[(3R,5R)-3,5-dimethylmorpholin-4-yl]methyl}-5-methylpiperazin-1-yl]acetyl}-3,3-dimethyl-1H,2H,3H,4H,5H-pyrrolo[3,2-b]pyridin-5-one dihydrochloride], the EC50 in data set [1] was found to be 1.2 nM. Moreover, the “hERG PPC (PI)” value on hERG ion channel (@ 100 μM) worked out at 33% @ 100.

Take `C[C@@H]1CN(CC(=O)N2CC(C)(C)c3nc(C(O)CO)c(Cc4ccc(F)cc4)cc32)[C@@H](CN2CCOC[C@H]2C)CN1` (single isomer, unassigned) [Example 14, 1-[5-((R or S)-1,2-Dihydroxyethyl)-6-[(4-fluorophenyl)methyl]-3,3-dimethyl-1H,2H,3H-pyrrolo [3,2-b]pyridin-1-yl]-2-[(2R,5R)-5-methyl-2-{[(3R)-3-methylmorpholin-4-yl]methyl}piperazin-1-yl] ethan-1-one dihydrochloride]: the EC50 in data set [1] amounted to 13 nM. At hERG ion channel (@ 300 μM, dihydrochloride), the “hERG PPC (PI)” value is given as 58% @ 300.

Take `C[C@@H]1CN(CC(=O)N2CC(C)(C)c3c2cc(Cc2ccc(F)cc2F)c(=O)n3C)[C@@H](CN2C[C@H](C)OC[C@H]2C)CN1` [Example 25, 6-[(2,4-Difluorophenyl)methyl]-1-{2-[(2R,5R)-2-{[(2S,5R)-2,5-dimethylmorpholin-4-yl]methyl}-5-methylpiperazin-1-yl]acetyl}-3,3,4-trimethyl-1H,2H,3H,4H,5H-pyrrolo[3,2-b]pyridin-5-one dihydrochloride]: in data set [1], the EC50 was 2.7 nM.

Consider `C[C@@H]1CN(CC(=O)N2CC(C)(C)c3cc(=O)n(Cc4ccc(F)cc4F)cc32)[C@@H](CN2[C@H](C)COC[C@H]2C)CN1` [Example 20, 6-[(2,4-Difluorophenyl)methyl]-1-{2-[(2R,5R)-2-{[(3R,5R)-3,5-dimethylmorpholin-4-yl]methyl}-5-methylpiperazin-1-yl]acetyl}-3,3-dimethyl-1H,2H,3H,5H,6H-pyrrolo[2,3-c]pyridin-5-one dihydrochloride], for which the EC50 in data set [1] amounted to 6.3 nM. Besides, the “hERG PPC (PI)” value on hERG ion channel (@ 100 μM) is given as 44% @ 100.

In the case of `CCCCc1cc2c(n(C)c1=O)C(C)(C)CN2C(=O)CN1C[C@@H](C)NC[C@@H]1CN1[C@H](C)COC[C@H]1C` [Example 33, 6-Butyl-1-{2-[(2R,5R)-2-{[(3R,5R)-3,5-dimethylmorpholin-4-yl]methyl}-5-methylpiperazin-1-yl]acetyl}-3,3,4-trimethyl-1H,2H,3H,4H,5H-pyrrolo[3,2-b]pyridin-5-one dihydrochloride], the EC50 in data set [1] is 2.4 nM. The “hERG PPC (PI)” value at hERG ion channel (@ 31.3 μM) is 33% @ 31.3.

Turning to `C[C@@H]1CN(CC(=O)N2CC(C)(C)c3cc(=O)n(Cc4ccc(F)cc4F)cc32)[C@@H](CN2C[C@H](C)OC[C@H]2C)CN1.Cl.Cl` [Example 22, 6-[(2,4-Difluorophenyl)methyl]-1-{2-[(2R,5R)-2-{[(2S,5R)-2,5-dimethylmorpholin-4-yl]methyl}-5-methylpiperazin-1-yl]acetyl}-3,3-dimethyl-1H,2H,3H,5H,6H-pyrrolo[2,3-c]pyridin-5-one dihydrochloride], in data set [1], the EC50 was found to be 3.9 nM. Besides, the “hERG PPC (PI)” value at hERG ion channel (@ 100 μM) is 47% @ 100.

Take `C[C@@H]1CN(CC(=O)N2CC(C)(C)c3c2cc(Cc2ccc(F)cc2F)c(=O)n3N)[C@@H](CN2CCOC[C@H]2C)CN1.Cl.Cl` [Example 23, 4-Amino-6-[(2,4-difluorophenyl)methyl]-3,3-dimethyl-1-{2-[(2R,5R)-5-methyl-2-{[(3R)-3-methylmorpholin-4-yl]methyl}piperazin-1-yl]acetyl}-1H,2H,3H,4H,5H-pyrrolo[3,2-b] pyridin-5-one dihydrochloride]: the EC50 in data set [1] is 0.77 nM. For the same molecule, the “hERG PPC (PI)” value on hERG ion channel (@ 100 μM) worked out at 63% @ 100.

As for `COC(CO)c1nc2c(cc1Cc1ccc(F)cc1)N(C(=O)CN1C[C@@H](C)NC[C@@H]1CN1CCOC[C@H]1C)CC2(C)C` (single isomer, unassigned) [Example 29, 1-{6-[(4-Fluorophenyl)methyl]-5-((R or S)-2-hydroxy-1-methoxyethyl)-3,3-dimethyl-1H,2H,3H-pyrrolo[3,2-b]pyridin-1-yl}-2-[(2R,5R)-5-methyl-2-{[(3R)-3-methylmorpholin-4-yl]methyl}piperazin-1-yl] ethan-1-one], the EC50 in data set [1] turned out to be 13 nM. In addition, the “hERG PPC (PI)” value at hERG ion channel (@ 500 μM) amounted to 53% @ 500.

On to `C[C@@H]1CN(CC(=O)N2CC(C)(C)c3nc(CO)c(Cc4ccccc4F)cc32)[C@@H](CN2CCOC[C@H]2C)CN1` [Example 4, 1-{6-[(2-Fluorophenyl)methyl]-5-(hydroxymethyl)-3,3-dimethyl-1H,2H,3H-pyrrolo[3,2-b]pyridin-1-yl}-2-[(2R,5R)-5-methyl-2-{[(3R)-3-methylmorpholin-4-yl]methyl}piperazin-1-yl] ethan-1-one dihydrochloride], for which the EC50 in data set [1] amounted to 2.6 nM. For the same molecule, the “hERG PPC (PI)” value on hERG ion channel (@ 30 μM) is on record as 47% @ 30.

For the molecule `C[C@@H]1CN(CC(=O)N2CC(C)(C)c3c2cc(Cc2ccc(F)cc2)c(=O)n3N)[C@@H](CN2CCOC[C@H]2C)CN1` [Example 24, 4-Amino-6-[(4-fluorophenyl)methyl]-3,3-dimethyl-1-{2-[(2R,5R)-5-methyl-2-{[(3R)-3-methylmorpholin-4-yl]methyl}piperazin-1-yl]acetyl}-1H,2H,3H,4H,5H-pyrrolo[3,2-b]pyridin-5-one dihydrochloride], the EC50 in data set [1] is 0.58 nM and 1.1 nM. Besides, on hERG ion channel (@ 100 μM), the “hERG PPC (PI)” value is recorded as 40% @ 100.

Consider `COCC(O)c1nc2c(cc1Cc1ccc(F)cc1)N(C(=O)CN1C[C@@H](C)NC[C@@H]1CN1CCOC[C@H]1C)CC2(C)C` (single isomer, unassigned) [Example 28, 1-{6-[(4-Fluorophenyl)methyl]-5-((R or S)-1-hydroxy-2-methoxyethyl)-3,3-dimethyl-1H,2H,3H-pyrrolo[3,2-b]pyridin-1-yl}-2-[(2R,5R)-5-methyl-2-{[(3R)-3-methylmorpholin-4-yl]methyl}piperazin-1-yl] ethan-1-one trihydrochloride], for which the EC50 in data set [1] came to 4.4 nM. Also, the “hERG PPC (PI)” value on hERG ion channel (@ 125 μM) is 45% @ 125.

Turning to `CCCCc1cc2c(n(N)c1=O)C(C)(C)CN2C(=O)CN1C[C@@H](C)NC[C@@H]1CN1[C@H](C)COC[C@H]1C` [Example 30, 4-Amino-6-butyl-1-{2-[(2R,5R)-2-{[(3R,5R)-3,5-dimethylmorpholin-4-yl]methyl}-5-methylpiperazin-1-yl]acetyl}-3,3-dimethyl-1H,2H,3H,4H,5H-pyrrolo[3,2-b]pyridin-5-one dihydrochloride], in data set [1], the EC50 was 1.2 nM and 1.4 nM. For the same molecule, on hERG ion channel, the concentration for half-maximal inhibition (IC50) (as a rule, the concentration needed to halve the response being measured) was determined as 230 µM.

For the molecule `C[C@@H]1CN(CC(=O)N2CC(C)(C)c3c2cc(Cc2ccc(F)cc2)c(=O)n3C)[C@@H](CN2C[C@H](C)OC[C@H]2C)CN1` [Example 18, 1-{2-[(2R,5R)-2-{[(2S,5R)-2,5-Dimethylmorpholin-4-yl]methyl}-5-methylpiperazin-1-yl]acetyl}-6-[(4-fluorophenyl)methyl]-3,3,4-trimethyl-1H,2H,3H,4H,5H-pyrrolo[3,2-b]pyridin-5-one trihydrochloride], the EC50 in data set [1] was 1.2 nM. The “hERG PPC (PI)” value on hERG ion channel (@ 75 μM) came out at 44% @ 75.

For the molecule `C[C@@H]1CN(CC(=O)N2CC(C)(C)c3c2cc(Cc2ccc(F)cc2)c(=O)n3C)[C@@H](CN2CCOC[C@H]2C)CN1` [Example 6, 6-[(4-Fluorophenyl)methyl]-3,3,4-trimethyl-1-{2-[(2R,5R)-5-methyl-2-{[(3R)-3-methylmorpholin-4-yl]methyl}piperazin-1-yl]acetyl}-1H,2H,3H,4H,5H-pyrrolo[3,2-b]pyridin-5-one dihydrochloride], the EC50 in data set [1] was 2 nM. Further, the “hERG PPC (PI)” value on hERG ion channel (@ 250 μM) was 56% @ 250.

Regarding `C[C@@H]1CN(CC(=O)N2CC(C)(C)c3nc(CO)c(Cc4ccc(F)cc4F)cc32)[C@@H](CN2CCOC[C@H]2C)CN1` [Example 11, 1-{6-[(2,4-Difluorophenyl)methyl]-5-(hydroxymethyl)-3,3-dimethyl-1H,2H,3H-pyrrolo[3,2-b]pyridin-1-yl}-2-[(2R,5R)-5-methyl-2-{[(3R)-3-methylmorpholin-4-yl]methyl}piperazin-1-yl] ethan-1-one dihydrochloride], the EC50 in data set [1] was determined as 1.1 nM. The same molecule had an IC50 at hERG ion channel of 51 µM.
